According to patent US6887658B2, “Methods of identifying non-specific inhibitors of biomolecules” (Northwestern University, priority 2001, dated 2005):
Where two headings read alike, the source gives them in different places.

Assays:
[1] = tested on: model enzymes (β-lactamase, chymotrypsin, DHFR, β-galactosidase); format: biochemical
[2] = tested on: prion; conditions: original target; read-out: IC50 Original Target(s): prion; cited from earlier work
[3] = Dynamic light scattering (DLS); format: physicochemical
[4] = molecular target: triosephosphate isomerase (Plasmodium falciparum, UniProt Q07412); conditions: read-out: IC50 Original Target(s): TIM; cited from earlier work
Chain of triosephosphate isomerase (Q07412 whole entry): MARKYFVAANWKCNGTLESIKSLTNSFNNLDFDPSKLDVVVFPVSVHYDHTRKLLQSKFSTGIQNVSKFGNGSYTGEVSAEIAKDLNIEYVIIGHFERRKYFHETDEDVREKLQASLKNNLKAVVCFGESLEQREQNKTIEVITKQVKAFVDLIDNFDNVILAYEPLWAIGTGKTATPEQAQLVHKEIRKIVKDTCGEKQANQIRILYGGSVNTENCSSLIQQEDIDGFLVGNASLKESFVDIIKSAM

[5] = molecular target: phosphoinositide 3-kinase; conditions: original target; read-out: IC50 Original Target(s): PI3K; cited from earlier work
[6] = molecular target: β-galactosidase (Escherichia coli, UniProt P00722); test: biochemical; conditions: for ↑ IC50 in the presence of BSA, against β-galactosidase: 0.1 mg/mL BSA
Chain of β-galactosidase (P00722 2-1024 limits assumed): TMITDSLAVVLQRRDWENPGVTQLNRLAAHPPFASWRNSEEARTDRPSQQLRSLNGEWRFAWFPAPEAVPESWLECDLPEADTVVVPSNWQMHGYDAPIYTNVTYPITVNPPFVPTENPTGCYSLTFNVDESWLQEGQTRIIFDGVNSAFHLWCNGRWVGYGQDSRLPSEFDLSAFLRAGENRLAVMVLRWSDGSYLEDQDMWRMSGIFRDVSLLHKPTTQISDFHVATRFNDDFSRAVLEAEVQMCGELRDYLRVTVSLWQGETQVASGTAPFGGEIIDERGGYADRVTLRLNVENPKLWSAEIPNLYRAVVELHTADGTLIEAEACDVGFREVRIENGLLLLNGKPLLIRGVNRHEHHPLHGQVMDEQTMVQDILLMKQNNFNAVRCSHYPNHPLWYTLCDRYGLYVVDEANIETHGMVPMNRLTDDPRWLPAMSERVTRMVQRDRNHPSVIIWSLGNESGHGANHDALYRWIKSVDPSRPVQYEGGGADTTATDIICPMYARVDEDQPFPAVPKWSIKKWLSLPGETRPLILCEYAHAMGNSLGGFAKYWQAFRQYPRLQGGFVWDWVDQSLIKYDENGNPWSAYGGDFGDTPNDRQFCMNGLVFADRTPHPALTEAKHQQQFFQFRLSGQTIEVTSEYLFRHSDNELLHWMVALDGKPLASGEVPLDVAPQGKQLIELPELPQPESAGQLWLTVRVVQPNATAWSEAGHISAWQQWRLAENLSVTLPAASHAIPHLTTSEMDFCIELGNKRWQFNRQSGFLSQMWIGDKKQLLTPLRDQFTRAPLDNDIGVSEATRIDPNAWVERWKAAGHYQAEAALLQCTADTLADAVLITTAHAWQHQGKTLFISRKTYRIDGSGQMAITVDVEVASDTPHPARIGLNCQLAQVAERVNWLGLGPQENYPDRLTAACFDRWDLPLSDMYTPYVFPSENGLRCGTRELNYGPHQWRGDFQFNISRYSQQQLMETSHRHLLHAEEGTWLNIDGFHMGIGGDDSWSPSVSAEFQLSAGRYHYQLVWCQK

[7] = molecular target: integrase; conditions: original target; read-out: IC50 Original Target(s): integrase; cited from earlier work
[8] = molecular target: T1, AmpC β-lactamase (Escherichia coli, UniProt P00811); conditions: for ↑ IC50 vs. 10x Enzyme: β-lactamase 10 nM vs 1 nM; for ↑ IC50 vs. 10x β-lactamase: 10-fold increase in β-lactamase
T1 sequence (P00811 20-377 limits assumed): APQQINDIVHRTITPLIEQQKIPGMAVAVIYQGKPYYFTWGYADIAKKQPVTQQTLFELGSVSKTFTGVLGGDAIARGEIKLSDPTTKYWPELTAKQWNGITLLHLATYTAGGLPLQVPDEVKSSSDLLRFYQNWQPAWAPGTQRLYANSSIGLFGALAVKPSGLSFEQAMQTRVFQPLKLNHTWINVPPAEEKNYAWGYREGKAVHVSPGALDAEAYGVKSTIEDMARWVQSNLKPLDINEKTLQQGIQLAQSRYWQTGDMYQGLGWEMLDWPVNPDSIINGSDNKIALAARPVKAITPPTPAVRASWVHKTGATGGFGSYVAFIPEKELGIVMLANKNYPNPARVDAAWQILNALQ

[9] = tested on: kinesin; conditions: original target; read-out: IC50 Original Target(s): kinesin; cited from earlier work
[10] = tested on: thymidylate synthase; conditions: original target; read-out: IC50 Original Target(s): TS; cited from earlier work
[11] = molecular target: T1, AmpC β-lactamase; test: biochemical
[12] = tested on: neuronal nitric oxide synthase; conditions: original target; read-out: IC50 Original Target(s): nNOS; cited from earlier work
[13] = molecular target: chymotrypsin (Bos taurus, UniProt P00766); test: chymotrypsin inhibition enzyme assay; format: biochemical
[14] = tested on: endothelial nitric oxide synthase; conditions: original target; read-out: IC50 Original Target(s): eNOS; cited from earlier work
[15] = tested on: HIV Tar RNA; conditions: original target; read-out: IC50 Original Target(s): HIV Tar RNA; cited from earlier work
[16] = format: physicochemical; conditions: 625 μM in 20 mM Tris, pH 7.2
[17] = molecular target: insulin receptor (Homo sapiens, UniProt P06213); conditions: original target; footnote b: Kd; read-out: Kd Original Target(s): insulin receptor; cited from earlier work
Chain of insulin receptor (P06213 28-1382, species assumed): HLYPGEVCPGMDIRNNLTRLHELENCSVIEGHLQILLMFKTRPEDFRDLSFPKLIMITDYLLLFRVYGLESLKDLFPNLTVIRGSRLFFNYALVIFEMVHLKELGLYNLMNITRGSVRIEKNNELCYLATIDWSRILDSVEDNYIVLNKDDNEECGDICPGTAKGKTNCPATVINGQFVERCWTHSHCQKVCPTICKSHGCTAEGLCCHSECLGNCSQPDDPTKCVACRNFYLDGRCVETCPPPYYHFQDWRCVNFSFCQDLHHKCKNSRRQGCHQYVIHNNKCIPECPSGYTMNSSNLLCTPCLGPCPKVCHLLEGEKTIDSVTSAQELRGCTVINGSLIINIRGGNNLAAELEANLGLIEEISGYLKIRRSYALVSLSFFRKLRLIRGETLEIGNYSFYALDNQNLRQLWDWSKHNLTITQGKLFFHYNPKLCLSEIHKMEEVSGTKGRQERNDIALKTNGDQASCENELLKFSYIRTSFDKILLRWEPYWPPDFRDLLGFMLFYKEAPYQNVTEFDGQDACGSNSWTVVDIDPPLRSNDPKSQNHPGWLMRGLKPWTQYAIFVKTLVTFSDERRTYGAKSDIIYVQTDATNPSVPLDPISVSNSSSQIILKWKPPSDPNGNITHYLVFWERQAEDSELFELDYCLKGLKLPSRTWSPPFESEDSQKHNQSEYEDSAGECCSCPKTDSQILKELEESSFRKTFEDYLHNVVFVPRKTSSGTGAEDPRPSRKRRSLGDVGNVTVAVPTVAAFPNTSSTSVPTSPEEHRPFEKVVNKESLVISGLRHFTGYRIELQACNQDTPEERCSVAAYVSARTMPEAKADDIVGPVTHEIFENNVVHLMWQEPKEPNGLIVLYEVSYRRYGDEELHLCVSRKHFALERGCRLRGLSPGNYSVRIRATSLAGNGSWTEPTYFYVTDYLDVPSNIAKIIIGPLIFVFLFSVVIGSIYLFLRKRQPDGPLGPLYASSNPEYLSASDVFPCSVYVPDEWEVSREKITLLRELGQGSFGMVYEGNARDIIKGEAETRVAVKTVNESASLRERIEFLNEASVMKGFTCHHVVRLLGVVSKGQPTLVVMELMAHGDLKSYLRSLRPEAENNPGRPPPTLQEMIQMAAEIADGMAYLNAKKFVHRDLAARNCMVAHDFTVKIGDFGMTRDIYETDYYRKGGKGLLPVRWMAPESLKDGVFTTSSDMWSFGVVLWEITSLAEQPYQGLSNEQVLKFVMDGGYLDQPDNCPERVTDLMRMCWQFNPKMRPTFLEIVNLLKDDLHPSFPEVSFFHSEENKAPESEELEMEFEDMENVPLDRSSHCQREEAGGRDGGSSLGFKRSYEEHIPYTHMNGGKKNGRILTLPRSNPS

[18] = Table 4, 50 mM KPi, at the concentration under DLS conc.
[19] = Table 2, 5 min preincubation of inhibitor and enzyme vs none
[20] = Table 6, read-out: IC50 vs. chymo.
[21] = Table 6, incubation with β-lactamase, 5 min

With `Nc1c(/N=N/c2ccc(-c3ccc(/N=N/c4cc(S(=O)(=O)O)c5ccccc5c4N)cc3)cc2)cc(S(=O)(=O)O)c2ccccc12` [Congo Red] as the compound, how does the “inhibition of the model enzymes” value [1] read?
Its value is “inhibit the model enzymes”.

And the IC50 [2]?
The IC50 was 1 µM.

What about the “DLS Diameter” value [3] of the same compound?
Its value is 202.6 ± 22.5 nm.

What about the “DLS Intensity” value [3] of the same compound?
The value was 131.1 ± 64.3 kcps.

What about the “particle formation in solution by DLS (autocorrelation function)” value [3] of the same compound?
The value was “did form particles detectable by DLS”.

And the IC50 [4]?
The IC50 was 30.4 µM.

With `O=c1c(O)c(-c2ccc(O)c(O)c2)oc2cc(O)cc(O)c12` [quercetin] as the compound, how does the IC50 [5] read?
The IC50 was 3.8 µM.

What about the IC50 ([6]; Table 1, 37° C.) of the same compound?
The IC50 was 220 µM.

What about the IC50 [7] of the same compound?
The IC50 was 11 µM.

Which “Diameter, 5 mM KPi” value ([3]; DLS in 5 mM KPi) does the source give for `CC(C)c1ccc(/C=C2/C(=O)Nc3ccccc32)cc1` [3-(4-isopropylbenzylidene)indolin-2-one] here?
Its value is 247.1 ± 12.8 nm.

And the “Diameter, 500 mM KPi” value ([3]; DLS in 500 mM KPi)?
The value was 494.3 ± 48.1 nm.

And the “DLS Diameter” value [3, 18]?
Its value is 379.0 ± 14.1 nm.

What about the “DLS Intensity” value [3, 18] of the same compound?
The value was 43.8 ± 5.7 kcps.

What does the source list for `OB(O)c1cc2ccccc2s1` [Benzo[b]thiophene-2-boronic acid]?
particle formation in solution by DLS (autocorrelation function) ([3]; 50 mM KPi): not observed to form particles; Diameter, 5 mM KPi ([3]; DLS in 5 mM KPi): No particles; Diameter, 50 mM KPi ([3]; DLS in 50 mM KPi): No particles; Diameter, 500 mM KPi ([3]; DLS in 500 mM KPi): No particles; DLS Diameter [3, 18]: No particles; DLS Intensity [3, 18]: 0.9 ± 0.2 kcps; ↓ IC50 with Incubation [8, 19]: No change; ↑ IC50 vs. 10x Enzyme ([8]; Table 2): No change

What does the source list for `Oc1ccc(/N=N/c2ccc(Br)cc2)cc1` [drawing 40]?
Diameter, 5 mM KPi ([3]; DLS in 5 mM KPi): 140.2 ± 12.1 nm; Diameter, 500 mM KPi ([3]; DLS in 500 mM KPi): 267.4 ± 24.5 nm; DLS Diameter [3, 18]: 176.2 ± 7.9 nm; DLS Intensity [3, 18]: 12.6 ± 3.9 kcps

What does the source list for `O=C1C(I)=CC(=C(c2cc(I)c(O)c(I)c2)c2ccccc2C(=O)O)C=C1I` [tetraiodophenolphthalein]?
IC50 [9]: 30 µM; particle formation in solution by DLS (autocorrelation function) ([3]; 50 mM KPi): presence of particles; Diameter, 5 mM KPi ([3]; DLS in 5 mM KPi): 86.2 ± 10.5 nm; Diameter, 500 mM KPi ([3]; DLS in 500 mM KPi): 320.4 ± 38.8 nm; DLS Diameter [3, 18]: 153.4 ± 26.0 nm; DLS Intensity [3, 18]: 42.2 ± 3.9 kcps; DLS mean diameter in the TEM conditions ([3]; same conditions as TEM): 83.2 ± 6.5 nm; IC50 [10]: 3 µM

For `O=C1O/C(=C\Nc2ccc(Oc3ccccc3)cc2)c2ccccc21` [drawing 3], which IC50 [11] is on record?
Its IC50 is 5 µM.

For tris (dicarboxymethylene) fullerene-C3, which IC50 [12] is on record?
The IC50 was 24 µM.

What about the IC50 ([13]; Table 1, read-out: IC50 Chymotrypsin) of the same compound?
The IC50 was 60 µM.

What about the IC50 [14] of the same compound?
The IC50 was 17 µM.

What about the “↓ IC50 with Incubation” value [8, 19] of the same compound?
The value was 2-fold.

And the “↑ IC50 vs. 10x Enzyme” value ([8]; Table 2)?
Its value is >50-fold.

And the IC50 ([8]; read-out: IC50 β-lactamase, Table 1, 50 mM KPi pH 7.0, 5 min incubation, 1 nM enzyme)?
The IC50 was 7 µM.

Which IC50 [15] does the source give for `O=S(=O)(O)c1cc(O)c(/N=N/c2ccc3ccccc3c2O)c2ccccc12` here?
The IC50 was 50 µM.

For `CC(C)(C)c1ccc(-c2cc(C(=O)O)cc(-c3ccc(Cl)c(O)c3)n2)cc1`, which IC50 [13, 20] is on record?
Its IC50 is 13 µM.

What about the IC50 [11] of the same compound?
Its IC50 is 4 µM.

What about the “↑ IC50 vs. 10x β-lactamase” value ([8]; Table 6) of the same compound?
The value was 12-fold.

And the “↓ IC50 with Incubation” value [8, 21]?
The value was >50-fold.

Which “↑ IC50 in the presence of BSA, against β-galactosidase” value [6] does the source give for `O=C1O/C(=C\Nc2ccc(Oc3ccccc3)cc2)c2ccccc21` [drawing 34] here?
The value was 9 fold.

Which IC50 [13, 20] does the source give for `O=C(O)c1cc(-c2ccc(Cl)cc2)nc(-c2ccc(Nc3ccc(Cl)cc3)cc2)c1` here?
Its IC50 is 2 µM.

And the IC50 [11]?
The IC50 was 2 µM.

And the “↑ IC50 vs. 10x β-lactamase” value ([8]; Table 6)?
The value was 4-fold.

What about the “↓ IC50 with Incubation” value [8, 21] of the same compound?
The value was 12-fold.

Which “Diameter, 5 mM KPi” value ([3]; DLS in 5 mM KPi) does the source give for `O=C(N/N=C/c1ccccc1O)C(=O)N/N=C/c1ccccc1O` here?
The value was 389.3 ± 55.4 nm.

What about the “Diameter, 500 mM KPi” value ([3]; DLS in 500 mM KPi) of the same compound?
The value was 426.6 ± 23.8 nm.

What about the “DLS Diameter” value [3, 18] of the same compound?
The value was 394.6 ± 12.5 nm.

What about the “DLS Intensity” value [3, 18] of the same compound?
The value was 26.4 ± 5.1 kcps.

With `O=S(=O)(O)c1cccc2cccc(Nc3ccccc3)c12` [ANS, 8-anili-no-1-naphthalene-sulfonic acid] as the compound, how does the “inhibition of the model enzymes” value [1] read?
Its value is “does not inhibit the model enzymes”.

What about the “DLS Diameter” value [3] of the same compound?
Its value is “No particles”.

And the “DLS Intensity” value [3]?
The value was 0.5 ± 0.1 kcps.

What about the “Diameter, 5 mM KPi” value [3] of the same compound?
The value was “No particles”.

And the “Diameter, 50 mM KPi” value [3]?
Its value is “No particles”.

What about the “Diameter, 500 mM KPi” value [3] of the same compound?
Its value is “No particles”.

And the “particles observed by TEM” value [16]?
The value was “Particles were not observed”.

For `O=C1C2C(C(=O)N1Nc1ccc([N+](=O)[O-])cc1[N+](=O)[O-])[C@@]1(Cl)C(Cl)=C(Cl)[C@]2(Cl)C1(Cl)Cl` (stereo partly drawn), which “Diameter, 5 mM KPi” value ([3]; DLS in 5 mM KPi) is on record?
Its value is 143.5 ± 7.9 nm.

What about the “DLS Diameter” value [3, 18] of the same compound?
Its value is 418.6 ± 38.8 nm.

What about the “DLS Intensity” value [3, 18] of the same compound?
The value was 24.9 ± 3.1 kcps.

For `O=C1OC2(c3cc(I)c(O)c(I)c3Oc3c2cc(I)c(O)c3I)c2c(Cl)c(Cl)c(Cl)c(Cl)c21` [Rose Bengal lactone], which Kd [17] is on record?
Its Kd is 20 µM.

Which results are given for `CCCC[n+]1ccc(-c2cc(C(=O)O)cc(-c3ccc(Cl)cc3)n2)cc1`?
IC50 [11]: 8 µM; ↑ IC50 vs. 10x β-lactamase ([8]; Table 6): 20-fold; ↓ IC50 with Incubation [8, 21]: 24-fold

Which results are given for `O=S(=O)(O)Cc1cc2cc(S(=O)(=O)O)c(/N=N/c3ccc(Br)cc3S(=O)(=O)O)c(O)c2c(O)c1/N=N/c1ccc(Br)cc1S(=O)(=O)O`?
IC50 [11]: 80 µM; ↑ IC50 vs. 10x β-lactamase ([8]; Table 6): >50-fold; ↓ IC50 with Incubation [8, 21]: 2-fold

Which results are given for `O=C1O/C(=C\Nc2ccc(Oc3ccccc3)cc2)c2ccccc21` [drawing 41]?
DLS Diameter [3, 18]: 94.7 ± 4.2 nm; DLS Intensity [3, 18]: 16.2 ± 1.1 kcps

With `O=C1Nc2cccc(O)c2C1Cc1ccc2c(c1)CCCC2` (stereo not drawn) as the compound, how does the IC50 [13, 20] read?
The IC50 was 40 µM.

What about the IC50 [11] of the same compound?
The IC50 was 15 µM.

What about the “↑ IC50 vs. 10x β-lactamase” value ([8]; Table 6) of the same compound?
Its value is 6-fold.

And the “↓ IC50 with Incubation” value [8, 21]?
The value was 3-fold.

For `Oc1ccc(/N=N/c2ccc(Br)cc2)cc1` [drawing 33], which “↑ IC50 in the presence of BSA, against β-galactosidase” value [6] is on record?
The value was 8 fold.
